Laboratory results reported in US20060252807A1, “Novel ortho-terphenyl inhibitors of p38 kinase and methods of treating inflammatory disorders” (Kalypsys, Inc., priority 2005, published 2006).

Target: T1, active p38 alpha enzyme (Upstate Biotechnology) (Homo sapiens, UniProt Q16539)
T1 construct: purchased Upstate Biotechnology
Assay: p38α biochemical assay (ATP turnover, luminescent detection, Cambrex PKlight)
Details: p38α kinase; Table 1 Biological Activity
Method in brief: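 In this kinase reaction, p38α used MapkapK2 as phosphorylation substrate at low ATP (1.4 uM final) over 2 hours at 30C, and activity was followed as ATP turnover by luminescence.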

T1 sequence (Q16539 whole entry): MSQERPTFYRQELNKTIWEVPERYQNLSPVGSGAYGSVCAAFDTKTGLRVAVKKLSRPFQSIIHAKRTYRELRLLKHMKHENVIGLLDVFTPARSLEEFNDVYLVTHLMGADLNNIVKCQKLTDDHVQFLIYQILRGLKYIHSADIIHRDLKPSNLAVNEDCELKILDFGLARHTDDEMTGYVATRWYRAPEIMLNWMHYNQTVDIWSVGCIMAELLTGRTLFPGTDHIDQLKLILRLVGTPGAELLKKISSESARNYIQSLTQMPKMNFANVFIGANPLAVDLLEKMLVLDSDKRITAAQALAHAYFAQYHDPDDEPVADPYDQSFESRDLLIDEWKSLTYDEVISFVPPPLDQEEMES

| IC50 [µM] | Structure (SMILES) |
| --- | --- |
| > 1 | CC(C)NC(=O)c1csc(-c2c(-c3ccc(F)cc3)n[nH]c2C2CCN(C(=O)c3cc(Br)ccc3Cl)CC2)n1 [Example 1034] |
| > 1 | CC(C)NC(=O)c1csc(-c2c(-c3ccc(F)cc3)n[nH]c2C2CCN(C(=O)c3ccc(Cl)c(Br)c3)CC2)n1 [Example 1035] |
| > 1 | CC(C)NC(=O)c1csc(-c2c(-c3ccc(F)cc3)n[nH]c2C2CCN(C(=O)c3ccccc3C(=O)c3ccc(O)cc3)CC2)n1 [Example 1036] |
| > 1 | CC(C)NC(=O)c1csc(-c2c(-c3ccc(F)cc3)n[nH]c2C2CCN(C(=O)c3ccccc3C(=O)c3ccc(F)cc3)CC2)n1 [Example 1037] |
| > 1 | CC(C)NC(=O)c1csc(-c2c(-c3ccc(F)cc3)n[nH]c2C2CCN(C(=O)C(C)c3ccc(-c4ccccc4)c(F)c3)CC2)n1 (centres unmarked) [Example 1038] |
| > 1 | CC(C)NC(=O)c1csc(-c2c(-c3ccc(F)cc3)n[nH]c2C2CCN(C(=O)C3CCCN3C(=O)OCc3ccccc3)CC2)n1 (centres unmarked) [Example 1041] |
| > 1 | CCC(C)C(NC(=O)OC(C)(C)C)C(=O)N1CCC(c2[nH]nc(-c3ccc(F)cc3)c2-c2nc(C(=O)NC(C)C)cs2)CC1 (centres unmarked) [Example 1042] |
| ≤ 1 | CC(C)CC(NC(=O)OC(C)(C)C)C(=O)N1CCC(c2[nH]nc(-c3ccc(F)cc3)c2-c2nc(C(=O)NC(C)C)cs2)CC1 (centres unmarked) [Example 1043] |
| > 1 | CC(C)NC(=O)c1csc(-c2c(-c3ccc(F)cc3)n[nH]c2C2CCN(C(=O)C(C)c3cccc(C(=O)c4ccccc4)c3)CC2)n1 (centres unmarked) [Example 1044] |
| > 1 | CC(C)NC(=O)c1csc(-c2c(-c3ccc(F)cc3)n[nH]c2C2CCN(C(=O)C(Cc3ccccc3)NC(=O)OC(C)(C)C)CC2)n1 (centres unmarked) [Example 1045] |
| > 1 | CC(C)NC(=O)c1csc(-c2c(-c3ccc(F)cc3)n[nH]c2C2CCN(C(=O)C(Cc3ccccn3)NC(=O)OC(C)(C)C)CC2)n1 (centres unmarked) [Example 1046] |
| > 1 | CC(C)NC(=O)c1csc(-c2c(-c3ccc(F)cc3)n[nH]c2C2CCN(C(=O)C3Cc4ccccc4CN3C(=O)OC(C)(C)C)CC2)n1 (centres unmarked) [Example 1047] |
| > 1 | CC(C)NC(=O)c1csc(-c2c(-c3ccc(F)cc3)n[nH]c2C2CCN(C(=O)C(Cc3ccc(O)cc3)NC(=O)OC(C)(C)C)CC2)n1 (centres unmarked) [Example 1048] |
| > 1 | CNCc1nc(-c2ccc(F)cc2)c(-c2nc(C(=O)NC(C)C)cs2)o1 [Example 1049] |
| > 1 | CCNCc1nc(-c2ccc(F)cc2)c(-c2nc(C(=O)NC(C)C)cs2)o1 [Example 1050] |
| > 1 | C#CCNCc1nc(-c2ccc(F)cc2)c(-c2nc(C(=O)NC(C)C)cs2)o1 [Example 1051] |
| > 1 | CC(C)NC(=O)c1csc(-c2oc(CNCC#N)nc2-c2ccc(F)cc2)n1 [Example 1052] |
| > 1 | CC(C)NC(=O)c1csc(-c2oc(CNC3CC3)nc2-c2ccc(F)cc2)n1 [Example 1053] |
| > 1 | CC(C)NCc1nc(-c2ccc(F)cc2)c(-c2nc(C(=O)NC(C)C)cs2)o1 [Example 1054] |
| > 1 | CCCNCc1nc(-c2ccc(F)cc2)c(-c2nc(C(=O)NC(C)C)cs2)o1 [Example 1055] |
| > 1 | CC(C)NC(=O)c1csc(-c2oc(CNCCN)nc2-c2ccc(F)cc2)n1 [Example 1056] |
| > 1 | CC(C)NC(=O)c1csc(-c2oc(CNCCO)nc2-c2ccc(F)cc2)n1 [Example 1057] |
| > 1 | CC(C)NC(=O)c1csc(-c2oc(CNCCC#N)nc2-c2ccc(F)cc2)n1 [Example 1058] |
| > 1 | CC(C)NC(=O)c1csc(-c2oc(CNC3CCC3)nc2-c2ccc(F)cc2)n1 [Example 1059] |
| > 1 | CC(C)NC(=O)c1csc(-c2oc(CNCC3CC3)nc2-c2ccc(F)cc2)n1 [Example 1060] |

| IC50 [µM] | Structure (SMILES) |
| --- | --- |
| > 1 | CCC(C)NCc1nc(-c2ccc(F)cc2)c(-c2nc(C(=O)NC(C)C)cs2)o1 (centres unmarked) [Example 1061] |
| > 1 | CC(C)CNCc1nc(-c2ccc(F)cc2)c(-c2nc(C(=O)NC(C)C)cs2)o1 [Example 1062] |
| > 1 | CC(C)NC(=O)c1csc(-c2oc(CNCCCO)nc2-c2ccc(F)cc2)n1 [Example 1063] |
| ≤ 1 | CC(C)NC(=O)c1csc(-c2oc(CNC(C)CO)nc2-c2ccc(F)cc2)n1 (centres unmarked) [Example 1064] |
| ≤ 1 | COCCNCc1nc(-c2ccc(F)cc2)c(-c2nc(C(=O)NC(C)C)cs2)o1 [Example 1065] |
| > 1 | CC(C)NC(=O)c1csc(-c2oc(CNC3CCCC3)nc2-c2ccc(F)cc2)n1 [Example 1066] |
| > 1 | CCCC(C)NCc1nc(-c2ccc(F)cc2)c(-c2nc(C(=O)NC(C)C)cs2)o1 (centres unmarked) [Example 1067] |
| > 1 | CCC(C)CNCc1nc(-c2ccc(F)cc2)c(-c2nc(C(=O)NC(C)C)cs2)o1 (centres unmarked) [Example 1068] |
| ≤ 1 | CC(C)NC(=O)c1csc(-c2oc(CNC(C)C(C)C)nc2-c2ccc(F)cc2)n1 (centres unmarked) [Example 1069] |
| > 1 | CC(C)CCNCc1nc(-c2ccc(F)cc2)c(-c2nc(C(=O)NC(C)C)cs2)o1 [Example 1070] |
| > 1 | CC(C)NC(=O)c1csc(-c2oc(CNCCN(C)C)nc2-c2ccc(F)cc2)n1 [Example 1071] |
| > 1 | COCC(C)NCc1nc(-c2ccc(F)cc2)c(-c2nc(C(=O)NC(C)C)cs2)o1 (centres unmarked) [Example 1072] |
| > 1 | CCC(CO)NCc1nc(-c2ccc(F)cc2)c(-c2nc(C(=O)NC(C)C)cs2)o1 (centres unmarked) [Example 1073] |
| ≤ 1 | CCC(CO)NCc1nc(-c2ccc(F)cc2)c(-c2nc(C(=O)NC(C)C)cs2)o1 (centres unmarked) [Example 1074] |
| > 1 | CC(C)NC(=O)c1csc(-c2oc(CNCCCCO)nc2-c2ccc(F)cc2)n1 [Example 1075] |
| > 1 | CC(C)NC(=O)c1csc(-c2oc(CNCc3ccco3)nc2-c2ccc(F)cc2)n1 [Example 1076] |
| > 1 | CC(C)NC(=O)c1csc(-c2oc(CNC3CCCCC3)nc2-c2ccc(F)cc2)n1 [Example 1077] |
| > 1 | CC(C)NC(=O)c1csc(-c2oc(CNCC3CCCO3)nc2-c2ccc(F)cc2)n1 (centres unmarked) [Example 1078] |
| ≤ 1 | CC(C)NC(=O)c1csc(-c2oc(CNCCC(C)(C)C)nc2-c2ccc(F)cc2)n1 [Example 1079] |
| > 1 | CC(C)CC(C)NCc1nc(-c2ccc(F)cc2)c(-c2nc(C(=O)NC(C)C)cs2)o1 (centres unmarked) [Example 1080] |
| > 1 | CC(C)NC(=O)c1csc(-c2oc(CNC3CONC3=O)nc2-c2ccc(F)cc2)n1 (centres unmarked) [Example 1081] |
| > 1 | CC(C)NC(=O)c1csc(-c2oc(CNN3CCOCC3)nc2-c2ccc(F)cc2)n1 [Example 1082] |
| > 1 | CC(C)NC(=O)c1csc(-c2oc(CNC(CO)C(C)C)nc2-c2ccc(F)cc2)n1 (centres unmarked) [Example 1083] |
| > 1 | CC(C)NC(=O)c1csc(-c2oc(CNCc3ccccc3)nc2-c2ccc(F)cc2)n1 [Example 1084] |
| > 1 | CC(C)NC(=O)c1csc(-c2oc(CNCc3cccnc3)nc2-c2ccc(F)cc2)n1 [Example 1085] |

| IC50 [µM] | Structure (SMILES) |
| --- | --- |
| ≤ 1 | CC(C)NC(=O)c1csc(-c2oc(CNCc3ccccn3)nc2-c2ccc(F)cc2)n1 [Example 1086] |
| > 1 | CC(C)NC(=O)c1csc(-c2oc(CNCc3ccncc3)nc2-c2ccc(F)cc2)n1 [Example 1087] |
| > 1 | CC(C)NC(=O)c1csc(-c2oc(CNCc3cccs3)nc2-c2ccc(F)cc2)n1 [Example 1088] |
| > 1 | CC1CCC(NCc2nc(-c3ccc(F)cc3)c(-c3nc(C(=O)NC(C)C)cs3)o2)CC1 (centres unmarked) [Example 1089] |
| > 1 | CC(C)NC(=O)c1csc(-c2oc(CNCC3CCCCC3)nc2-c2ccc(F)cc2)n1 [Example 1090] |
| > 1 | CC(C)NC(=O)c1csc(-c2oc(CNC3CCCCCC3)nc2-c2ccc(F)cc2)n1 [Example 1091] |
| > 1 | CC(C)NC(=O)c1csc(-c2oc(CNC3CCCCC3C)nc2-c2ccc(F)cc2)n1 (centres unmarked) [Example 1092] |
| > 1 | CC(C)NC(=O)c1csc(-c2oc(CNCCN3CCCC3)nc2-c2ccc(F)cc2)n1 [Example 1093] |
| > 1 | CC(C)NC(=O)c1csc(-c2oc(CNN3CCN(C)CC3)nc2-c2ccc(F)cc2)n1 [Example 1094] |
| > 1 | CCN(CC)CCNCc1nc(-c2ccc(F)cc2)c(-c2nc(C(=O)NC(C)C)cs2)o1 [Example 1095] |
| > 1 | Cc1cccc(CNCc2nc(-c3ccc(F)cc3)c(-c3nc(C(=O)NC(C)C)cs3)o2)c1 [Example 1096] |
| > 1 | CC(C)NC(=O)c1csc(-c2oc(CN[C@@H](C)c3ccccc3)nc2-c2ccc(F)cc2)n1 [Example 1097] |
| > 1 | CC(C)NC(=O)c1csc(-c2oc(CN[C@H](C)c3ccccc3)nc2-c2ccc(F)cc2)n1 [Example 1098] |
| > 1 | CC(C)NC(=O)c1csc(-c2oc(CNCCc3ccccc3)nc2-c2ccc(F)cc2)n1 [Example 1099] |
| > 1 | Cc1ccccc1CNCc1nc(-c2ccc(F)cc2)c(-c2nc(C(=O)NC(C)C)cs2)o1 [Example 1100] |
| > 1 | Cc1ccc(CNCc2nc(-c3ccc(F)cc3)c(-c3nc(C(=O)NC(C)C)cs3)o2)cc1 [Example 1101] |
| > 1 | Cc1cnc(CNCc2nc(-c3ccc(F)cc3)c(-c3nc(C(=O)NC(C)C)cs3)o2)cn1 [Example 1102] |
| > 1 | CC(C)NC(=O)c1csc(-c2oc(CNCc3cccc(F)c3)nc2-c2ccc(F)cc2)n1 [Example 1103] |
| > 1 | CC(C)NC(=O)c1csc(-c2oc(CNCc3ccc(F)cc3)nc2-c2ccc(F)cc2)n1 [Example 1104] |
| > 1 | CC(C)NC(=O)c1csc(-c2oc(CNCc3ccccc3F)nc2-c2ccc(F)cc2)n1 [Example 1105] |
| > 1 | CC(C)NC(=O)c1csc(-c2oc(CNCCCn3ccnc3)nc2-c2ccc(F)cc2)n1 [Example 1106] |
| > 1 | CC(C)NC(=O)c1csc(-c2oc(CNCCC3CCCN3C)nc2-c2ccc(F)cc2)n1 (centres unmarked) [Example 1107] |
| > 1 | CC(C)NC(=O)c1csc(-c2oc(CNCCN3CCCCC3)nc2-c2ccc(F)cc2)n1 [Example 1108] |
| > 1 | CC(C)CCCC(C)NCc1nc(-c2ccc(F)cc2)c(-c2nc(C(=O)NC(C)C)cs2)o1 (centres unmarked) [Example 1109] |
